Measurements taken from ChEMBL document CHEMBL1240530, “Inhalation by design: novel ultra-long-acting β(2)-adrenoreceptor agonists for inhaled once-daily treatment of asthma and chronic obstructive pulmonary disease that utilize a sulfonamide agonist headgroup” (J Med Chem, 2010).
Values belong to the compound of their own block, whether it stands above or below them.

How the values were obtained:
[1] = molecular target: Beta-2 adrenergic receptor (Homo sapiens, UniProt P07550); assay: Agonist activity at human recombinant beta2 adrenergic receptor expressed in CHO cells assessed as elevation in cAMP level after 1 hr by flashplate method; format: functional, cell-based
Sequence of Beta-2 adrenergic receptor (P07550 whole entry): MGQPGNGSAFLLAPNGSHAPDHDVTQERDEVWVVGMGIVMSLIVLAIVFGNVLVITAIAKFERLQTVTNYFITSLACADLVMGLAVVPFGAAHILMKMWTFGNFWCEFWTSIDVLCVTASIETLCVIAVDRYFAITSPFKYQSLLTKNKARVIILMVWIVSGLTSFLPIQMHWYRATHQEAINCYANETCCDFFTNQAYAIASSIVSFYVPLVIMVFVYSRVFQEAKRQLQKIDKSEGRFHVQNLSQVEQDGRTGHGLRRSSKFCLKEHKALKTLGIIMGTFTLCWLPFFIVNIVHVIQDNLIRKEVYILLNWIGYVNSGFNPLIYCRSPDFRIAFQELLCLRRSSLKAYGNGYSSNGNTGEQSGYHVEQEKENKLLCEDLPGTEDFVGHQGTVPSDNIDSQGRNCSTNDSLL

[2] = species on record: Homo sapiens; assay: Selectivity ratio of EC50 for human recombinant beta-1 adrenergic receptor to EC50 for human recombinant beta2 adrenergic receptor
[3] = Bronchodilatory activity in Dunkin-Hartley guinea pig trachea assessed as time taken for electrical filed stimulation-induced constrictive response to recover by 50%; format: functional, Cavia porcellus
[4] = Distribution coefficient, log D of the compound; format: physicochemical; conditions: octanol/water
[5] = in vivo; conditions: beagle, dog, inhaled or intranasal
Description: Therapeutic index, ratio of dose inducing cardiovascular side effects to ED50 for inhibition of acetylcholine-induced bronchoconstriction in itr dosed Beagle dog

[6] = species on record: Canis familiaris
Description: Bronchodilatory activity in itr dosed Beagle dog assessed as inhibition of acetylcholine-induced bronchoconstriction administered 5 doses of compound at cumulative 1 hr intervals

[7] = test system: Canis familiaris; assay: Bronchodilatory activity in itr dosed Beagle dog assessed as duration of blockade of acetylcholine-induced bronchoconstriction at 10 times ED50 administered as single dose prior to acetylcholine challenge
[8] = test system: Canis familiaris; assay: Bronchodilatory activity in itr dosed Beagle dog assessed as duration of blockade of acetylcholine-induced bronchoconstriction at ED50 administered as single dose prior to acetylcholine challenge
[9] = Dissociation constant, pKa of the compound; format: physicochemical
[10] = Cmax in rat at 100 ug, it; format: ADME, organism-based; design: dose 100 ug; conditions: in vivo, inhaled or intranasal
[11] = Plasma protein binding in iv dosed rat; format: ADME, organism-based; conditions: read-out: PPB (converted)
[12] = Half life in iv dosed rat; format: ADME, organism-based; conditions: in vivo
[13] = molecular target: Voltage-gated inwardly rectifying potassium channel KCNH2 (Homo sapiens, UniProt Q12809); assay: Inhibition of human ERG by patch clamp technique
Sequence of Voltage-gated inwardly rectifying potassium channel KCNH2 (Q12809 whole entry): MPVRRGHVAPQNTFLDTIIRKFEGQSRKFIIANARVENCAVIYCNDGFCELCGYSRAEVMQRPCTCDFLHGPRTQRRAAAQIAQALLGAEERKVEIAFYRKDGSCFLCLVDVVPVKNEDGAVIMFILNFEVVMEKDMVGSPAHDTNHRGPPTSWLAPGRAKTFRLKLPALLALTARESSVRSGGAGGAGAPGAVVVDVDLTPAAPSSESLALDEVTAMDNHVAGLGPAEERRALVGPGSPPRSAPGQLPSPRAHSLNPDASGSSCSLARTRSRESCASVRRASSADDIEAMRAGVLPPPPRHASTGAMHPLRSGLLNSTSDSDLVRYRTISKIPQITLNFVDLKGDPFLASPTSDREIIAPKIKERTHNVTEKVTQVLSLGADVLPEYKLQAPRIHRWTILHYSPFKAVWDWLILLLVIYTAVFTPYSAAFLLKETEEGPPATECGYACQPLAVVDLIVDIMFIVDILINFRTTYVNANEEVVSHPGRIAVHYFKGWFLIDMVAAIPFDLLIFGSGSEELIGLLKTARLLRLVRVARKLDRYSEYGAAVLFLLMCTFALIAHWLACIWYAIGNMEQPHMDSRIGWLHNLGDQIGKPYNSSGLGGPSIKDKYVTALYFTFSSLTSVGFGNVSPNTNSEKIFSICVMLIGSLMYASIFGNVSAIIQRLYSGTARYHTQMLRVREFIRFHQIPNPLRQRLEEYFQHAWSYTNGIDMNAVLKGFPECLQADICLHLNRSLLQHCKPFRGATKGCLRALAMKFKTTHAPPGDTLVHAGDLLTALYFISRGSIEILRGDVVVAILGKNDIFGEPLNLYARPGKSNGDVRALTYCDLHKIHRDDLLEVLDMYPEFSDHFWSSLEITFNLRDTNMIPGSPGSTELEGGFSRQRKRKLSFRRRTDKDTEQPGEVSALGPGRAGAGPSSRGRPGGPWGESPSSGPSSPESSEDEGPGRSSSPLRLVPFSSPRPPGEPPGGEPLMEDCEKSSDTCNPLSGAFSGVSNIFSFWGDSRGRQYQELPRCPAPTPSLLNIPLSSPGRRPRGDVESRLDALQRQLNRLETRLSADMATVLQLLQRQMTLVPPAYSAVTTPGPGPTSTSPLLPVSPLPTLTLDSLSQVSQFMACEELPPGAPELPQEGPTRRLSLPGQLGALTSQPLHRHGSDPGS

[14] = test system: Liver; assay: Unbound intrinsic clearance in rat liver; format: ADME, Microsome; conditions: microsomes
[15] = Apparent permeability from basolateral to apical side of human Caco-2 cells; format: ADME, cell-based
[16] = species on record: Oryctolagus cuniculus; assay: Toxicity in rabbit Adelta-fibre firing model assessed as induction of postinhalation cough at 50 to 1000 ug, it; format: organism-based; conditions: in vivo, inhaled_or_intranasal
[17] = test system: Liver microsomes; assay: Intrinsic clearance in human liver microsome; format: ADME
[18] = Tmax in rat at 100 ug, it; format: ADME, organism-based; conditions: in vivo, inhaled or intranasal
[19] = test system: Liver microsomes; assay: Metabolic stability in human liver microsome; format: ADME
[20] = test system: Canis familiaris; assay: Cardiotoxicity in itr dosed Beagle dog assessed as induction of trachycardia after 7.5 hrs; format: toxicity, organism-based, Canis lupus familiaris; conditions: in vivo, inhaled_or_intranasal
[21] = Apparent permeability from apical to basolateral side of human Caco-2 cells; format: ADME, cell-based
[22] = Volume of distribution in iv dosed rat; format: ADME, organism-based; conditions: in vivo
[23] = test system: Liver microsomes; assay: Intrinsic clearance in human liver microsome in presence of CYP3A4 inhibitor ketoconazole; format: ADME
[24] = Metabolic stability in rat bile assessed as compound remaining; format: ADME, tissue-based
[25] = Oral bioavailability in rat; format: ADME, organism-based; conditions: in vivo
[26] = test system: Liver; assay: Intrinsic clearance in rat liver; format: ADME, Microsome; conditions: microsomes
[27] = Total clearance in iv dosed rat; format: ADME, organism-based; conditions: in vivo
[28] = test system: Canis familiaris; assay: Cardiotoxicity in itr dosed Beagle dog assessed as increase in heart rate after 7.5 hrs; format: toxicity, organism-based, Canis lupus familiaris; conditions: in vivo, inhaled_or_intranasal

- EC50 [1]: 0.37 nM
- Ratio EC50 [2]: 210
- logD [4]: 1.6
SMILES: CCN(Cc1ccc(O)cc1Cl)C(=O)Cc1cccc(CC(C)(C)NC[C@H](O)c2ccc(O)c(NS(C)(=O)=O)c2)c1
- Time [3]: 8.49 h

SMILES: COc1cccc(OC)c1CNC(=O)c1cc2cc(C[C@@H](C)NC[C@H](O)c3ccc(O)c(CO)c3)ccc2[nH]1
- selectivity ratio [5]: 10
- ED50 [6]: 1 µg
- Time [7]: >8 h
- Time [8]: >8 h

- EC50 [1]: 0.04 nM
- Ratio EC50 [2]: 1800
SMILES: C[C@H](Cc1cccc(CC(=O)NCCc2ccccc2)c1)NC[C@H](O)c1ccc(O)c(NS(C)(=O)=O)c1

- EC50 [1]: 0.02 nM
- Ratio EC50 [2]: 7300
- logD [4]: 1.2
SMILES: CC(C)(Cc1cccc(CC(=O)NCc2ccc(O)cc2Cl)c1)NC[C@H](O)c1ccc(O)c(NS(C)(=O)=O)c1
- Time [3]: 6.8 h

- EC50 [1]: 0.066 nM
- Ratio EC50 [2]: 1700
- logD [4]: 2.4
SMILES: CC(C)(Cc1cccc(CC(=O)NCc2ccc(Cl)c(Cl)c2)c1)NC[C@H](O)c1ccc(O)c(NS(C)(=O)=O)c1
- Time [3]: 8.34 h

- EC50 [1]: 0.091 nM
- pKa [9]: 6.69
- Ratio EC50 [2]: 1600
- logD [4]: 0.8
SMILES: CC(C)(Cc1cccc(CC(=O)NCc2cc(Cl)c(O)c(Cl)c2)c1)NC[C@H](O)c1ccc(O)c(NS(C)(=O)=O)c1
- Time [3]: 3.66 h

- EC50 [1]: 0.032 nM
- Ratio EC50 [2]: 3100
SMILES: C[C@H](Cc1cccc(CC(=O)NCC2CCCCC2)c1)NC[C@H](O)c1ccc(O)c(NS(C)(=O)=O)c1
- Time [3]: 5.79 h

- logD [4]: 0.6
SMILES: CC(C)(Cc1ccccc1)NCC(O)c1ccc(O)c(NS(C)(=O)=O)c1 (stereo not given) [ZINTEROL]
- Time [3]: 3.4 h

- EC50 [1]: 0.13 nM
- Ratio EC50 [2]: 560
- logD [4]: 2
SMILES: CC(C)(Cc1cccc(CC(=O)NCc2cc(Cl)cc(Cl)c2O)c1)NC[C@H](O)c1ccc(O)c(NS(C)(=O)=O)c1
- Time [3]: 8.02 h

- EC50 [1]: 0.045 nM
- pKa [9]: 9.93
- Ratio EC50 [2]: 3700
- logD [4]: 1.1
SMILES: Cc1cc(O)cc(C)c1CNC(=O)Cc1cccc(CC(C)(C)NC[C@H](O)c2ccc(O)c(NS(C)(=O)=O)c2)c1
- Time [3]: 4.59 h

- Cmax [10]: 1.3 nM
- fraction unbound [11]: 0.05
- half-life [12]: 3.5 h
- CL free [14]: > 10000 mL/min/kg
- Ratio EC50 [2]: 220
- Papp B→A [15]: 13 ×10⁻⁶ cm/s
- CL [17]: 0.054 mL/min/kg
- Tmax [18]: 0.5 h
- Stability [19]: 80%
- Papp A→B [21]: < 1 ×10⁻⁶ cm/s
- Vd [22]: 31 L/kg
- CL [23]: < 0.01 mL/min/kg
- logD [4]: 1.9
- Stability [24]: 6%
- bioavailability [25]: < 5%
- CL [26]: 0.033 mL/min/kg
- clearance [27]: 103 mL/min/kg
SMILES: CC(C)(Cc1cccc(CC(=O)NCc2cccc(-c3ccc(O)cc3)c2)c1)NC[C@H](O)c1ccc(O)c(NS(C)(=O)=O)c1 [PF-00610355]
- selectivity ratio [5]: ≥ 10
- ED50 [6]: 0.1 µg
- IC50 [13]: > 10000 nM
- Time [7]: >8 h
- Activity [16]: Non-toxic
- Activity [20]: Non-toxic
- Time [3]: 6.23 h
- Time [8]: >8 h

SMILES: OCc1cc(C(O)CNCCCCCCOCCCCc2ccccc2)ccc1O (stereo not given) [SALMETEROL]
- Activity [28]: Toxic
- ED50 [6]: 1 µg
- Time [7]: <7 h
- Time [3]: 6.97 h
- Time [8]: 4 h

- EC50 [1]: 0.042 nM
- Ratio EC50 [2]: 3400
- logD [4]: 1.7
SMILES: C[C@H](Cc1cccc(CC(=O)NCCCc2ccccc2)c1)NC[C@H](O)c1ccc(O)c(NS(C)(=O)=O)c1
- Time [3]: 5.85 h

- EC50 [1]: 0.023 nM
- Ratio EC50 [2]: 7500
SMILES: CC(C)(Cc1cccc(CC(=O)NCc2ccccc2)c1)NC[C@H](O)c1ccc(O)c(NS(C)(=O)=O)c1

- EC50 [1]: 0.064 nM
- Ratio EC50 [2]: 1300
SMILES: C[C@H](Cc1cccc(CC(=O)NC23CC4CC(CC(C4)C2)C3)c1)NC[C@H](O)c1ccc(O)c(CO)c1
- Time [3]: 6.35 h

- Ratio EC50 [2]: 5300
SMILES: C[C@H](Cc1cccc(CC(=O)NCc2ccc(Cl)c(Cl)c2)c1)NC[C@H](O)c1ccc(O)c(CO)c1
- Time [3]: 9 h

- EC50 [1]: 0.056 nM
- Ratio EC50 [2]: 3700
- logD [4]: 2
SMILES: Cc1ccc(CNC(=O)Cc2cccc(C[C@@H](C)NC[C@H](O)c3ccc(O)c(NS(C)(=O)=O)c3)c2)cc1C
- Time [3]: 6.74 h

- EC50 [1]: 0.048 nM
- Ratio EC50 [2]: 3300
- logD [4]: 1.6
SMILES: CCOc1ccccc1CNC(=O)Cc1cccc(C[C@@H](C)NC[C@H](O)c2ccc(O)c(NS(C)(=O)=O)c2)c1
- Time [3]: 6.2 h

- EC50 [1]: 0.04 nM
- Ratio EC50 [2]: 5600
- logD [4]: 1.2
SMILES: COc1ccccc1CNC(=O)Cc1cccc(C[C@@H](C)NC[C@H](O)c2ccc(O)c(NS(C)(=O)=O)c2)c1
- Time [3]: 4.22 h

- Ratio EC50 [2]: 1300
SMILES: CC(C)(Cc1cccc(CC(=O)NCc2ccc(-c3ccc(O)cc3)cc2)c1)NC[C@H](O)c1ccc(O)c(NS(C)(=O)=O)c1
- Time [3]: 6.57 h

- EC50 [1]: 0.027 nM
- Ratio EC50 [2]: 16000
- logD [4]: 1
SMILES: C[C@H](Cc1cccc(CC(=O)NCc2ccccc2)c1)NC[C@H](O)c1ccc(O)c(NS(C)(=O)=O)c1
- Time [3]: 3.24 h

- EC50 [1]: 0.21 nM
- Ratio EC50 [2]: 730
- logD [4]: 1.3
SMILES: CC(C)(Cc1cccc(CC(=O)NCc2ccc3cc(O)ccc3c2)c1)NC[C@H](O)c1ccc(O)c(NS(C)(=O)=O)c1
- Time [3]: 6.17 h

- EC50 [1]: 0.17 nM
- pKa [9]: 9.22
- Ratio EC50 [2]: 7000
- logD [4]: 1.6
SMILES: CC(C)(Cc1cccc(CC(=O)NCc2cc(Cl)ccc2O)c1)NC[C@H](O)c1ccc(O)c(NS(C)(=O)=O)c1
- Time [3]: 6 h
